Data published in ChEMBL document CHEMBL1201862, “PubChem BioAssay data set” (2004).
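Interpolation was linear, between the two tested concentrations surrounding the appropriate level; five concentrations were tested over 48 hours in 96-well plates. Here, GI50 denotes the concentration required for 50% inhibition of growth.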 Active and inactive are the calls of the source. Cut-off read from the data, not from the text of the source: active = GI50 up to about 1.1 µM and inactive = higher.

How the values were obtained:
Experiment in all cases: inhibition of tumour cell growth, NCI panel, 48 h
[1] = test system: HOP-62
[2] = test system: MCF7
[3] = test system: KM12
[4] = test system: 786-0
[5] = test system: UACC-62
[6] = test system: OVCAR-8
[7] = test system: DU-145
[8] = test system: NCI-H226
[9] = test system: LOX IMVI
[10] = test system: NCI-H23
[11] = test system: MDA-MB-231
[12] = test system: COLO 205
[13] = test system: MDA-MB-435
[14] = test system: U-251
[15] = test system: ACHN
[16] = test system: SK-MEL-2
[17] = test system: Hs-578T
[18] = test system: SF-268
[19] = test system: NCI-H460
[20] = test system: A498

Measured: GI50

CCN(CC)CCCNc1nc(=O)[nH]c(C)c1C(=O)Nc1cccc2cc3ccccc3cc12
inactive: [1] > 100 µM | [2] > 100 µM | [3] 45.9 µM | [4] > 100 µM | [5] > 100 µM | [6] > 100 µM | [7] > 100 µM | [8] > 100 µM | [9] > 100 µM | [10] > 100 µM | [11] 82.4 µM | [12] > 100 µM | [13] > 100 µM | [14] > 100 µM | [15] > 100 µM | [16] > 100 µM

Cc1ccc(S(=O)(=O)NC(=O)Nc2ccc(C(=O)O)cc2)cc1
inactive: [1] > 100 µM | [17] > 100 µM | [2] > 100 µM | [3] > 100 µM | [4] > 100 µM | [5] > 100 µM | [6] > 100 µM | [18] > 100 µM | [7] > 100 µM | [9] > 100 µM | [10] > 100 µM | [11] > 100 µM | [12] > 100 µM | [19] > 100 µM | [14] > 100 µM | [15] > 100 µM | [16] > 100 µM

CN1C(=O)C(O)C[C@@H]1c1ccc(F)cc1 (some centres undefined)
inactive: [1] > 100 µM | [2] > 100 µM | [4] > 100 µM | [5] > 100 µM | [7] > 100 µM | [8] > 100 µM | [9] > 100 µM | [10] > 100 µM | [11] > 100 µM | [12] > 100 µM | [13] > 100 µM | [14] > 100 µM | [15] > 100 µM | [16] > 100 µM

CC1C(=O)CC(c2cccs2)N(N=O)C1c1cccs1 (centres undefined)
inactive: [1] 97.7 µM | [2] 19.3 µM | [20] 13.7 µM | [3] 54.1 µM | [5] 59.7 µM | [6] > 42 µM | [18] 97.3 µM | [8] > 92 µM | [9] 56.5 µM | [10] 40.6 µM | [12] 53.1 µM | [19] 34.8 µM | [14] 68.2 µM | [16] 49.9 µM

CCCC/C=C1\CCC(CN2CCOCC2)C1=O (centres undefined)
inactive: [1] 15.7 µM | [2] 1.53 µM | [20] 14.1 µM | [3] 1.8 µM | [4] 1.8 µM | [5] 6.4 µM | [6] 10 µM | [18] 11.5 µM | [7] 16.9 µM | [8] 8.63 µM | [9] 1.24 µM | [10] 5.7 µM | [11] 3.78 µM | [12] 2.97 µM | [13] 10.7 µM | [19] 18.2 µM | [14] 3.53 µM | [15] 3.59 µM | [16] 10.1 µM

COc1cc(C2c3cc4c(cc3OC(NCCO)C2C)OCO4)cc(OC)c1O (centres undefined)
inactive: [2] 9.29 µM | [3] 6.78 µM | [4] 8.26 µM | [5] 2.94 µM | [6] 19 µM | [18] 39.6 µM | [7] 9.79 µM | [8] 49.3 µM | [10] 24.6 µM | [11] 7.23 µM | [12] 21.2 µM | [13] 2.1 µM | [14] 6.08 µM | [16] 4.79 µM

O=C(C[n+]1ccccc1)N/N=C(\C(=O)NC1=C(Cl)C(=O)c2ccccc2C1=O)c1c(O)c2ccc(O)cc2oc1=O
inactive: [1] 10.4 µM | [2] 3.48 µM | [20] 19.9 µM | [3] 4.85 µM | [4] 4.93 µM | [5] 1.84 µM | [6] 3.66 µM | [18] 9.77 µM | [7] 3.59 µM | [8] 5.56 µM | [9] 2.63 µM | [10] 2.52 µM | [11] 7.73 µM | [12] 3.05 µM | [13] 2.01 µM | [19] 2.52 µM | [14] 5.07 µM | [15] 5.11 µM | [16] 2.31 µM

CC(=O)C(=Cc1cn(C)c(=O)n(C)c1=O)C(C)=O
inactive: [1] 137 µM | [2] 159 µM | [20] 101 µM | [3] 85.1 µM | [5] 75.9 µM | [6] 126 µM | [18] 148 µM | [8] 116 µM | [9] 71.1 µM | [10] 69.5 µM | [12] 80.9 µM | [19] 92.3 µM | [14] > 96.8 µM | [16] 106 µM

CCOC(=O)/C=C/c1c[nH]c(=O)[nH]c1=O
inactive: [1] > 49.1 µM | [2] > 75 µM | [20] > 75 µM | [3] > 75 µM | [5] > 75 µM | [6] > 75 µM | [18] > 75 µM | [8] > 75 µM | [9] > 75 µM | [10] > 75 µM | [12] > 75 µM | [19] > 75 µM | [14] > 75 µM | [16] > 75 µM

CC(C)C(N)C(=O)NC(CCC(=O)NCCCCC(N)C(=O)NCCCNc1ccc([N+](=O)[O-])c2[nH]c3ccccc3c(=O)c12)C(N)=O (centres undefined)
inactive: [1] 92.3 µM | [20] 59 µM | [3] > 100 µM | [4] 35.8 µM | [5] 25.2 µM | [6] 31.2 µM | [18] 58.7 µM | [7] > 100 µM | [8] 50.9 µM | [9] 21 µM | [10] 88.7 µM | [11] 41.2 µM | [12] 68.9 µM | [13] 67.9 µM | [19] 12.5 µM | [14] 26.7 µM | [15] 40.6 µM | [16] 91.6 µM

Cc1ccc(C(=O)Nc2ccc(S(=O)(=O)O)c3cc(S(=O)(=O)O)cc(S(=O)(=O)O)c23)cc1NC(=S)Nc1cc(C(=O)Nc2ccc(S(=O)(=O)O)c3cc(S(=O)(=O)O)cc(S(=O)(=O)O)c23)ccc1C
inactive: [1] > 75 µM | [2] > 75 µM | [20] > 75 µM | [4] > 75 µM | [5] > 75 µM | [6] > 75 µM | [18] > 75 µM | [7] > 75 µM | [8] > 75 µM | [9] > 75 µM | [10] > 75 µM | [11] > 75 µM | [13] > 75 µM | [19] > 75 µM | [14] > 75 µM | [15] > 75 µM | [16] > 75 µM

COCCNc1cncc(C(N)=O)c1
inactive: [1] > 100 µM | [17] > 100 µM | [2] > 100 µM | [20] > 100 µM | [3] > 100 µM | [4] > 100 µM | [5] > 100 µM | [6] > 100 µM | [18] > 100 µM | [7] > 100 µM | [8] > 100 µM | [10] > 100 µM | [11] > 100 µM | [12] > 100 µM | [19] > 100 µM | [14] > 100 µM | [15] > 100 µM | [16] > 100 µM
